The assay deals with T1, glutathione S-transferase (GST)-linked full-length human Syk protein (Homo sapiens, UniProt P43405).
T1 construct: glutathione S-transferase (GST)-linked full-length human Syk protein; purchased Carna Biosciences; host or cells: Baculovirus expression system
Description: Syk enzyme assay. It is filed as biochemical. To be noted: 0.83 nM Syk, time-resolved fluorescence; read-out: IC50 of Syk-inhibitory activity. On the procedure:
A glutathione S-transferase (GST)-linked full-length human Syk protein (Carna Biosciences), which had been generated using a Baculovirus expression system, was used in the Syk enzyme assay.
7.5 μl of a reaction solution (0.83 nM Syk, 20 mM HEPES, 10 mM MgCl2, 50 mM NaCl, 2 mM DTT, 0.05% BSA, pH 7.0) containing a Syk protein and a predetermined concentration of a test compound was shaken for 2 minutes, and it was then left at rest at room temperature for 13 minutes. Thereafter, 0.5 μM substrate peptide (Biotin-[…]-NH2) and 5 μL of a solution containing 67.5 μM ATP were added to the reaction solution, and the obtained mixture was then shaken for 2 minutes. The reaction solution was further left at rest at room temperature for 40 minutes, so as to carry out an enzyme reaction.
Thereafter, 50 μL of a reaction termination solution [60 nM APC-SA, 0.45 μg/mL Eu-PT66, 30 mM HEPES (pH 7.0), 150 mM KF, 30 mM EDTA, 0.15% BSA, 0.075% Tween20] containing Allophycocyanin-Streptavidin (APC-SA; PerkinElmer) and an Eu-W1024-labeled anti-phosphotyrosine PT66 antibody (Eu-PT66; PerkinElmer) was added to the reaction solution to terminate the enzyme reaction. At the same time, the reaction solution was left at rest at room temperature for 1 hour, so as to carry out an antigen-antibody reaction. Thereafter, using EnVision (PerkinElmer), the level of time-resolved fluorescence was measured at 615 nm and 665 nm, so that the phosphorylation of the substrate peptide was measured.
The following are used in Table 5 to denote standards for evaluating IC50 of Syk-inhibitory activity. • A: Up to 10 nM • B: 10 to 50 nM • C: 50 to 100 nM

A value given as a limit tells only on which side of the number the result lay.

What is called IC50 is the concentration that inhibits the measured activity by half. On to `CCn1ncc2cc(Nc3nc(N[C@@H](CN)Cc4ccccc4)c(F)cc3C(N)=O)ccc21` [Example 2-363, (R)-6-((1-amino-3-phenylpropan-2-yl)amino)-2-((1-ethyl-1H-indazol-5-yl)amino)-5-fluoronicotinamide], for which the IC50 lay in the range of 10 to 50 nM.
In the case of `COc1ncc(Nc2nc(N[C@@H]3CCCC[C@@H]3N)c(F)cc2C(N)=O)cc1C(C)=O` [Example 2-515, 2-((5-acetyl-6-methoxypyridin-3-yl)amino)-6-(((1R,2S)-2-aminocyclohexyl)amino)-5-fluoronicotinamide], the IC50 lay in the range of 10 to 50 nM.
Then `CCOc1ncc(Nc2nc(N[C@H](CC(C)C)[C@H](C)N)c(F)cc2C(N)=O)cc1-n1ccnn1` [Example 2-199, 6-(((2S,3R)-2-amino-5-methylhexan-3-yl)amino)-2-((6-ethoxy-5-(1H-1,2,3-triazol-1-yl)pyridin-3-yl)amino)-5-fluoronicotinamide], with below 10 nM; and `C[C@H](N)[C@H](Nc1nc(Nc2cnc(N3CCOCC3)c(F)c2)c(C(N)=O)cc1F)c1ccccc1F` [Example 2-513, 6-(((1R,2S)-2-amino-1-(2-fluorophenyl)propyl)amino)-5-fluoro-2-((5-fluoro-6-morpholinopyridin-3-yl)amino)nicotinamide], with 10 to 50 nM.
For the compound `CCC[C@@H](Nc1nc(Nc2cnc(OCCOC)c(F)c2)c(C(N)=O)cc1F)[C@H](C)N` [Example 2-118, 6-(((2S,3R)-2-aminohexan-3-yl)amino)-5-fluoro-2-((5-fluoro-6-(2-methoxyethoxy)pyridin-3-yl)amino)nicotinamide], the IC50 was in the range of 50 to 100 nM.
Consider `CC[C@@H](Nc1nc(Nc2cnc(OCCOC)c(F)c2)c(C(N)=O)cc1F)[C@H](C)N` [Example 2-117, 6-(((2S,3R)-2-aminopentan-3-yl)amino)-5-fluoro-2-((5-fluoro-6-(2-methoxyethoxy)pyridin-3-yl)amino)nicotinamide], for which the IC50 lay within 50 to 100 nM.
Consider `COCCn1ncc2c(Nc3nc(N[C@@H]4CCCC[C@@H]4N)c(F)cc3C(N)=O)cncc21` [Example 2-384, 6-(((1R,2S)-2-aminocyclohexyl)amino)-5-fluoro-2-((1-(2-methoxyethyl)-1H-pyrazolo[3,4-c]pyridin-4-yl)amino)nicotinamide], for which the IC50 was below 10 nM.
On to `CC(C)C[C@@H](Nc1nc(Nc2ccc3nn(C)c(N(C)C)c3c2)c(C(N)=O)cc1F)[C@H](C)N` [Example 2-15, 6-(((2S,3R)-2-amino-5-methylhexan-3-yl)amino)-2-((3-(dimethylamino)-2-methyl-2H-indazol-5-yl)amino)-5-fluoronicotinamide], for which the IC50 was below 10 nM.
Then `CCn1ncc2cc(Nc3nc(N[C@H](Cc4ccccc4)[C@H](C)N)c(F)cc3C(N)=O)ccc21` [Example 2-423, 6-(((2R,3S)-3-amino-1-phenylbutan-2-yl)amino)-2-((1-ethyl-1H-indazol-5-yl)amino)-5-fluoronicotinamide], with below 10 nM; and `CCn1ncc2c(Nc3nc(N[C@H](c4cc(F)cc(F)c4)[C@H](C)N)c(F)cc3C(N)=O)cccc21` [Example 2-551, 6-(((1R,2S)-2-amino-1-[3,5-difluorophenyl)propyl)amino)-2-((1-ethyl-1H-indazol-4-yl)amino)-5-fluoronicotinamide], with 10 to 50 nM; and `CC[C@@H](Nc1nc(Nc2ccc3c(c2)c(OC)nn3CC(F)F)c(C(N)=O)cc1F)[C@H](C)N` [Example 2-55, 6-(((2S,3R)-2-aminopentan-3-yl)amino)-2-((1-(2,2-difluoroethyl)-3-methoxy-1H-indazol-5-yl)amino)-5-fluoronicotinainide], with below 10 nM.
Turning to `CCn1ncc2c(Nc3nc(N[C@H](c4cccs4)[C@H](C)N)c(F)cc3C(N)=O)cccc21` [Example 2-509, 6-(((1S,2S)-2-amino-1-(thiophen-2-yl)propyl)amino)-2-((1-ethyl-1H-indazol-4-yl)amino)-5-fluoronicotinamide], the IC50 was below 10 nM.
For the compound `Cc1cnn(-c2cncc(Nc3nc(N[C@H](CC(C)C)[C@H](C)N)c(F)cc3C(N)=O)c2)c1` [Example 2-525, 6-(((2S,3R)-2-amino-5-methylhexan-3-yl)amino)-5-fluoro-2-((5-(4-methyl-1H-pyrazol-1-yl)pyridin-3-yl)amino)nicotinamide], the IC50 is below 10 nM.
Then `COc1cc(Nc2nc(N[C@@H](CN)Cc3ccccc3)c(F)cc2C(N)=O)cc(OC)n1` [Example 2-418, (R)-6-((1-amino-3-phenylpropan-2-yl)amino)-2-((2,6-dimethoxypyridin-4-yl)amino)-5-fluoronicotinamide], with 10 to 50 nM.
For the compound `COc1ncc(Nc2nc(N[C@H](C3CC3)[C@H](C)N)c(F)cc2C(N)=O)c2cnn(C)c12` [Example 2-408, 6-(((1R,2S)-2-amino-1-cyclopropylpropyl)amino)-5-fluoro-2-((7-methoxy-1-methyl-1H-pyrazolo[3,4-c]pyridin-4-yl)amino)nicotinamide], the IC50 was in the range of 50 to 100 nM.
Consider `COc1nn(C)c2c(F)cc(Nc3nc(N[C@H](CC(C)C)[C@H](C)N)c(F)cc3C(N)=O)cc12` [Example 2-156, 6-(((2S,3R)-2-amino-5-methylhexan-3-yl)amino)-5-fluoro-2-((7-fluoro-3-methoxy-1-methyl-1H-indazol-5-yl)amino)nicotinamide], for which the half-inhibitory concentration (IC50) is below 10 nM.
For the compound `COc1ncc(Nc2nc(N[C@H](C3CC3)[C@H](C)N)c(F)cc2C(N)=O)cc1F` [Example 2-62, 6-(((1R,2S)-2-amino-1-cyclopropylpropyl)amino)-5-fluoro-2-((5-fluoro-6-methoxypyridin-3-yl)amino)nicotinamide.], the IC50 lay within 10 to 50 nM.
Regarding `C[C@H](N)[C@H](Nc1nc(Nc2cnc(N3CCOCC3)c(F)c2)c(C(N)=O)cc1F)c1ccccc1` [Example 2-314, 6-(((1R,2S)-2-amino-1-phenylpropyl)amino)-5-fluoro-2-((5-fluoro-6-morpholinopyridin-3-yl)amino)nicotinamide], the half-maximal inhibitory concentration (IC50) is below 10 nM.
`COc1nn(C)c2c(F)cc(Nc3nc(N[C@H](CC4CC4)[C@H](C)N)c(F)cc3C(N)=O)cc12` [Example 2-157, 6-(((2R,3S)-3-amino-1-cyclopropylbutan-2-yl)amino)-5-fluoro-2-((7-fluoro-3-methoxy-1-methyl-1H-indazol-5-yl)amino)nicotinamide]: the concentration for half-maximal inhibition (IC50) was below 10 nM.
The value for `Cc1ccc(Nc2nc(N[C@@H]3CCCC[C@@H]3N)c(F)cc2C(N)=O)cc1` [Example 2-435, 6-(((1R,2S)-2-aminocyclohexyl)amino)-5-fluoro-2-(p-tolylamino)nicotinamide] was below 10 nM; that for `NC(=O)c1cc(F)c(N[C@@H]2CCCC[C@@H]2N)nc1Nc1cccc(OC(F)(F)F)c1` [Example 2-444, 6-(((1R,2S)-2-aminocyclohexyl)amino)-5-fluoro-2-((3-(trifluoromethoxy)phenyl)amino)nicotinamide] was below 10 nM.
Then `CCC[C@@H](Nc1nc(Nc2ccc3c(c2)c(N(C)C)nn3CCOC)c(C(N)=O)cc1F)[C@H](C)N` [Example 2-503, 6-(((2S,3R)-2-aminohexan-3-yl)amino)-2-((3-(dimethylamino)-1-(2-methoxyethyl)-1H-indazol-5-yl)amino)-5-fluoronicotinamide], with 10 to 50 nM; and `COCCn1ncc2cc(Nc3nc(N[C@H](c4ccc(F)c(F)c4)[C@H](C)N)c(F)cc3C(N)=O)ccc21` [Example 2-554, 6-(((1R,2S)-2-amino-1-(3,4-difluorophenyl)propyl)amino)-5-fluoro-2-((1-(2-methoxyethyl)-1H-indazol-5-yl)amino)nicotinamide], with below 10 nM; and `CC[C@@H](Nc1nc(Nc2ccc3c(c2)c(NC)nn3C)c(C(N)=O)cc1F)[C@H](C)N` [Example 2-497, 6-(((2S,3R)-2-aminopentan-3-yl)amino)-5-fluoro-2-((1-methyl-3-(methylamino)-1H-indazol-5-yl)amino)nicotinamide], with 50 to 100 nM.
The value for `CC(C)[C@@H](Nc1nc(Nc2cncc(C3CC3)c2)c(C(N)=O)cc1F)[C@H](C)N` [Example 2-111, 6-(((2S,3R)-2-amino-4-methylpentan-3-yl)amino)-2-((5-cyclopropylpyridin-3-yl)amino)-5-fluoronicotinamide] was 10 to 50 nM; that for `CC(C)C[C@H](CN)Nc1nc(Nc2ccc3c(c2)c(OC(F)F)nn3C)c(C(N)=O)cc1F` [Example 2-541, (R)-6-((1-amino-4-methylpentan-2-yl)amino)-2-((3-(difluoromethoxy)-1-methyl-1H-indazol-5-yl)amino)-5-fluoronicotinamide] was below 10 nM.
For `CC[C@H](N)[C@@H](CC)Nc1nc(Nc2cnc3c(c2)c(C)nn3C)c(C(N)=O)cc1F` [Example 2-248, 6-(((3R,4S)-4-aminohexan-3-yl)amino)-2-((1,3-dimethyl-1H-pyrazolo[3,4-b]pyridin-5-yl)amino)-5-fluoronicotinamide], the IC50 lay within 50 to 100 nM.

Source of the values: US9051310B2, “Nicotinamide derivative or salt thereof” (FUJIFILM Corporation, priority 2011, dated 2015).
